The values that follow come from patent publication US20040265984A1, “Methods of growing crystals of free, antibiotic-complexed, and substrate-complexed large ribosomal subunits, and methods of rationally designing or identifying antibiotics using structure coordinate data derived from such crystals” (priority 2001, published 2004).

The subject of data set [1] is E. coli. The settings on record: U/U at 23S rRNA positions C803DR/C1773DR; cited from earlier work.
For data set [2], the system named is D50S. The experiment in a line: X-ray crystallography of D50S-ligand complex crystals (co-crystallization or soaking). It is filed as binding, D. radiodurans. The settings on record: result in words, from complex crystals and electron-density maps. Here is the method: Growth of D50S crystals: D. radiodurans LRSs were isolated, and crystals of D50S belonging to the space-group […] were grown as described in Example 1, above. Co-crystallization of D50S with antibiotics was carried out in the presence of 0.8-3.5 mM of the antibiotics chloramphenicol, clindamycin, erythromycin, and roxithromycin. Co-crystallization of D50S with clarithromycin was achieved by soaking D50S crystals in solutions containing 0.01 mM of this antibiotic.
X-ray diffraction: Data were collected at 85 K from shock-frozen crystals with a bright SR beam at ID19 at APS/ANL, ID14/2 and 4 at ESRF/EMBL, and at BW6 at DESY. Data were recorded on MAR345, Quantum 4, or APS-CCD detectors and processed with HKL2000 (Otwinowski, Z. and Minor, W., 1997. Macromolecular Crystallography, Pt A 276, 307).
Placements and refinement: The 3.1 Å structure of D50S described in Example 1, above, was refined against the structure factor amplitudes of each of the antibiotic-D50S complexes, using rigid body refinement as implemented in CNS (Brunger, A. T. et al., 1998. Acta Crystallographica Section D-Biological Crystallography 54, 905). SigmaA-weighted difference maps were used for the initial manual placement of the antibiotics. Each of the D50S-antibiotic models was further refined using REFMAC software (Murshudov, G. N. et al., 1999. Acta Cryst section D55, 247). For the calculation of free R-factor a subset of reflections (10% of the data) was omitted from the refinement. The structure coordinates of the antibiotic-D50S complexes were submitted to the PDB under accession numbers 1JZX, 1JZY, 1JZZ, 1K00, and 1K01.
Crystallization: Crystals of the large ribosomal subunit of D. radiodurans (D50S) were generated as described in Example 1 above (Harms J. et al., 2001. Cell 107, 679-688; Schlüenzen et al., 2001. Nature 413, 814-821). […]
X-ray diffraction: Data were collected at 85 K from shock-frozen crystals using a synchrotron radiation beam at ID 19 at Argonne Photon Source/Argonne National Laboratory (APS/ANL) and ID14/2, ID14/4 at the European Synchrotron Radiation Facility/European Molecular Biology Laboratory (ESRF/EMBL). Data were recorded on Quantum 4 or APS-CCD detectors and processed with HKL2000 (Otwinowski, Z. and Minor, W., 1997. Macromolecular Crystallography Pt A. 276, 307) and the CCP4 suite (Bailey, S., 1994. Acta Cryst D. 50, 760).
Localization and refinement: The 3.1 Å structure of D50S (PDB accession code 1LNR) was refined against the structure factor amplitudes of each of the two D50S-antibiotic complexes, using rigid body refinement as implemented in CNS (Brunger, A. T. et al., 1998. Acta Crystallographica Section D-Biological Crystallography 54, 905-921). […] The positions of the antibiotics were readily determined from sigmaA-weighted difference maps. […]

Data set [3] deals with Heliobacter pylori. The settings on record: Heliobacter pylori (U/U); cited from earlier work.
Data set [4] deals with Haemophilus influenzae. Conditions: Haemophilus influenzae (A/C); cited from earlier work.
Data set [5] deals with ribosomes. The settings on record: cited from earlier work; for binding to the ribosome: result in words.
Data set [6] relates to ribosomes. The settings on record: cited from earlier work.

{Puro} = puromycin of the RNA

Turning to `CC[C@H]1OC(=O)[C@H](C)C(=O)[C@H](C)[C@@H](O[C@@H]2O[C@H](C)C[C@H](N(C)C)[C@H]2O)[C@](C)(OCC=Cc2cnc3ccccc3c2)C[C@@H](C)C(=O)[C@H](C)[C@H]2NC(=O)O[C@@]21C` [ABT-773], the “susceptibility to ABT-773” value in data set [1], in data set [3] and in data set [4] was “equally susceptible” throughout. Further, the “binding to D50S” value in data set [2] is “high affinity”.

With `COc1ccc(C[C@H](N)C(=O)N[C@H]2[C@@H](O)[C@H](n3cnc4c(N(C)C)ncnc43)O[C@@H]2CO)cc1` [Puromycin], the “binding to the ribosome” value in data set [5] is reported as “binds weakly”.

For the compound `CC[C@H]1OC(=O)[C@H](C)C(=O)[C@H](C)[C@@H](O[C@@H]2O[C@H](C)C[C@H](N(C)C)[C@H]2O)[C@](C)(OC)C[C@@H](C)C(=O)[C@H](C)[C@@H](O)[C@]1(C)O` [RU56006], in data set [5] (compared with erythromycin), the Kd result is listed as “same order of magnitude as that of erythromycin”.

Turning to `CC[C@H]1OC(=O)[C@H](C)[C@@H](O[C@H]2C[C@@](C)(OC)[C@@H](O)[C@H](C)O2)[C@H](C)[C@@H](O[C@@H]2O[C@H](C)C[C@H](N(C)C)[C@H]2O)[C@](C)(O)C[C@@H](C)CN(C)[C@H](C)[C@@H](O)[C@]1(C)O` [azithromycin, 9-deoxy-9A-methyl-9A-aza-9A-homoerythromycin], the “binding to D50S” value in data set [2] is “high affinity”.

For `CC[C@H]1OC(=O)[C@H](C)[C@@H](O[C@H]2C[C@@](C)(OC)[C@@H](O)[C@H](C)O2)[C@H](C)[C@@H](O[C@@H]2O[C@H](C)C[C@H](N(C)C)[C@H]2O)[C@](C)(O)C[C@@H](C)C(=O)[C@H](C)[C@@H](O)[C@]1(C)O` [erythromycin], the “length of peptides produced by erythromycin-bound ribosomes” value in data set [6] was “up to 8 residues”.

Consider `CSC[S@+]([O-])C[C@H](CO)NC(=O)/C=C/c1c(C)[nH]c(=O)[nH]c1=O` [sparsomycin], for which the “binding to the ribosome” value in data set [5] is given as “weak binding”. The “binding to D50S” value in data set [2] was “almost quantitative binding”.

“ACCP: puromycin-coupled RNA molecule having the sequence 5′-ACC-Puro; substrate analog mimicking the CCA 3′ end of the tRNA acceptor stem (RNA, 3' {Puro}, backbone not given here)”: the “binding to D50S” value in data set [2] is “bind well”.
